Measured values taken from patent EP4745137A1 (Gluetacs Therapeutics (Shanghai) Co., Ltd., priority 2023, dated 2025).

Legend:
[1] = target: T1, human Cereblon WT GST-tagged protein (Homo sapiens, UniProt Q96SW2); experiment: CRBN-binding affinity by HTRF (CEREBLON BINDING kit); conditions: HTRF inhibitory activity, CEREBLON BINDING kit; read-out: HTRF IC50
T1 construct: purchased CISBIO 64BDCRBNPEH

[2] = target: T2, GSPT1 (Homo sapiens, UniProt P15170+Q96SW2); experiment: Western-blot assay of substrate protein degradation in hPBMCs, GSPT1; type: cell-based; conditions: 24 hours of compound treatment
T2 construct: endogenous in cells; host or cells: hPBMCs (Milecell Biotechnologies)

[3] = target: T3, CK1α (Homo sapiens, UniProt P48729+Q96SW2); experiment: Western-blot assay of substrate protein degradation in hPBMCs, CK1α; type: cell-based; conditions: 24 hours of compound treatment
T3 construct: endogenous in cells; host or cells: hPBMCs (Milecell Biotechnologies)
T3 sequence (P48729 whole entry): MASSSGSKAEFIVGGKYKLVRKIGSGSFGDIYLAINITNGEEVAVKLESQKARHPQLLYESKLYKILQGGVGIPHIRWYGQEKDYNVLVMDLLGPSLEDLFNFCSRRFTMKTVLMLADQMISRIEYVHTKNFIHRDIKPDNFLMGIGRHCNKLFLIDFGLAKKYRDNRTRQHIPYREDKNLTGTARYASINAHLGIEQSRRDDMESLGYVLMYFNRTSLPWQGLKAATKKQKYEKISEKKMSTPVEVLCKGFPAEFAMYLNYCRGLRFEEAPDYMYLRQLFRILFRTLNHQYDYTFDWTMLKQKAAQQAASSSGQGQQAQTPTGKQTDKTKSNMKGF
T3 sequence (Q96SW2 whole entry): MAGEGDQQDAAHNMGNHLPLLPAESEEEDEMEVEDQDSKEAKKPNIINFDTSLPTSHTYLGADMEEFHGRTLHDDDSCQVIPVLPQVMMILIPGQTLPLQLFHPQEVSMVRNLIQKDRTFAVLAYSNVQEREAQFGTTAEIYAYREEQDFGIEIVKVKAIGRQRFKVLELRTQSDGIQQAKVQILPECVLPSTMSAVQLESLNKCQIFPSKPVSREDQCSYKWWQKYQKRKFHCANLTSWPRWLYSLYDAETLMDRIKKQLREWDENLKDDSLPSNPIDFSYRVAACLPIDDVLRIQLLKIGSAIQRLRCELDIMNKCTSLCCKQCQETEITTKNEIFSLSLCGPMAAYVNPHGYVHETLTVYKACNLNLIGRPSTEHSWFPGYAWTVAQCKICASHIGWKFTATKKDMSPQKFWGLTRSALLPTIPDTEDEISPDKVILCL
T3 sequence (Q16531 whole entry partner): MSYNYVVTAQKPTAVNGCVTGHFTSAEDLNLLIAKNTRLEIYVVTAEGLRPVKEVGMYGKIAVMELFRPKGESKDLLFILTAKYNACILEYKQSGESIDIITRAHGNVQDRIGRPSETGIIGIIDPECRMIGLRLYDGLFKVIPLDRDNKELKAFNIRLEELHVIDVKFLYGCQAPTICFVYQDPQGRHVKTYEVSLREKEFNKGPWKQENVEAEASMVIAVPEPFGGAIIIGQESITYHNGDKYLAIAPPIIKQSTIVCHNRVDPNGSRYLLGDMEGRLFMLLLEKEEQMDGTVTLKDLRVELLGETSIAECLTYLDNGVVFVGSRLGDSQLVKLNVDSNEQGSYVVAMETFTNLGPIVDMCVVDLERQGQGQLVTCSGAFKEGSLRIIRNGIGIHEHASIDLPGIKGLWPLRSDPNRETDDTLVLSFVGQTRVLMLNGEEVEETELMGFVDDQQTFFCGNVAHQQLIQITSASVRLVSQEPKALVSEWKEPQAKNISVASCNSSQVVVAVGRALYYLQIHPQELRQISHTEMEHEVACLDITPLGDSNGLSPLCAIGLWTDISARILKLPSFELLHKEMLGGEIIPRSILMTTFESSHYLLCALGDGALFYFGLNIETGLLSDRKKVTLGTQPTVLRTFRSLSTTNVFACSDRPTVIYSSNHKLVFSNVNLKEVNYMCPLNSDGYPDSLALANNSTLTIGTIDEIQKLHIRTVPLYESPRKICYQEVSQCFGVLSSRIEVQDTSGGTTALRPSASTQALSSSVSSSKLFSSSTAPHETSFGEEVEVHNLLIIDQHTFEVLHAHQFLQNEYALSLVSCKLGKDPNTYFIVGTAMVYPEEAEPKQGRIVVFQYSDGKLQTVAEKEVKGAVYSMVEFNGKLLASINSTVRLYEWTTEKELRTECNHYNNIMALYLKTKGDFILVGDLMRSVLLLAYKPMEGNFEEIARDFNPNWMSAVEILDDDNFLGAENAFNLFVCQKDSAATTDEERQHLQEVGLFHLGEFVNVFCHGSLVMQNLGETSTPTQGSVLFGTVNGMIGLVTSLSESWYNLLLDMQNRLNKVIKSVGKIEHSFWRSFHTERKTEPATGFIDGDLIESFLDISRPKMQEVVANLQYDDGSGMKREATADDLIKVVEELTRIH

[4] = target: T4, IKZF1 (Homo sapiens, UniProt Q13422+Q96SW2); experiment: Western-blot assay of substrate protein degradation in hPBMCs, IKZF1; type: cell-based; conditions: 24 hours of compound treatment
T4 construct: endogenous in cells; host or cells: hPBMCs (Milecell Biotechnologies)
T4 sequence (Q13422 whole entry): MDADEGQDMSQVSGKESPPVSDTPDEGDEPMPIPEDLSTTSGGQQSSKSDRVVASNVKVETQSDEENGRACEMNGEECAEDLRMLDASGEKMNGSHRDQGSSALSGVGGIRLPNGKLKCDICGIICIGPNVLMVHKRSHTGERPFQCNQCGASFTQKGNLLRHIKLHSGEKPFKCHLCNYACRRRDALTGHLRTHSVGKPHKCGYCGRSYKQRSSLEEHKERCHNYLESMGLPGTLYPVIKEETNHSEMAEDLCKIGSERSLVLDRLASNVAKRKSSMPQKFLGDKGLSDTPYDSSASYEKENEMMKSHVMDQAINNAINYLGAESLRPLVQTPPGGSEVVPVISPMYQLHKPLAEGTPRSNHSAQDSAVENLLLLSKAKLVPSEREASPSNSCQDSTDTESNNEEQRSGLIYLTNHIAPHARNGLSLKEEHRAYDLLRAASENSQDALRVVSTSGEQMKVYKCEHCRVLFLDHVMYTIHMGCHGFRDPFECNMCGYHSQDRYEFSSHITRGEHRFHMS
T4 sequence (Q96SW2 whole entry): as the sequence (Q96SW2 whole entry) above
T4 sequence (Q16531 whole entry partner): as the sequence (Q16531 whole entry partner) above

[5] = target: T5, WEE1 (Homo sapiens, UniProt P30291+Q96SW2); experiment: Western-blot assay of substrate protein degradation in hPBMCs, WEE1; type: cell-based; conditions: 24 hours of compound treatment
T5 construct: endogenous in cells; host or cells: hPBMCs (Milecell Biotechnologies)
T5 sequence (P30291 whole entry): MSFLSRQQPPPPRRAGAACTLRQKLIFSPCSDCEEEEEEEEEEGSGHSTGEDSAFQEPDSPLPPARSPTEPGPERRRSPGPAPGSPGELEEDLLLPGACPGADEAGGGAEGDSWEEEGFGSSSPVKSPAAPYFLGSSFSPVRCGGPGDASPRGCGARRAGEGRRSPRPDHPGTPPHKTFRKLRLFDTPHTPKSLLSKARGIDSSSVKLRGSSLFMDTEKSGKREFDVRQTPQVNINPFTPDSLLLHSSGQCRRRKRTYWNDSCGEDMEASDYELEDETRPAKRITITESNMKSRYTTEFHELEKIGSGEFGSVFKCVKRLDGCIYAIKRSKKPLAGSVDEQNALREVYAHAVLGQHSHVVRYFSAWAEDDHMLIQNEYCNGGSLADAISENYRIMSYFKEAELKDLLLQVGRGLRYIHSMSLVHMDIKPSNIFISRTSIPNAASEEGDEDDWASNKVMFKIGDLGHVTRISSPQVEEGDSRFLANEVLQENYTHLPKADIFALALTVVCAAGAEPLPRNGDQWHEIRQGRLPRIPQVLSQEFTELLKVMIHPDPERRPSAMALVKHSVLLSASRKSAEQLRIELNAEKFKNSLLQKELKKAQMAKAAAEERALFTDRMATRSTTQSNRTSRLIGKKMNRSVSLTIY
T5 sequence (Q96SW2 whole entry): as the sequence (Q96SW2 whole entry) above
T5 sequence (Q16531 whole entry partner): as the sequence (Q16531 whole entry partner) above

[6] = target: T6, IKZF2 (Homo sapiens, UniProt Q96SW2+Q9UKS7); experiment: Western-blot assay of substrate protein degradation in hPBMCs, IKZF2; type: cell-based; conditions: 24 hours of compound treatment
T6 construct: endogenous in cells; host or cells: hPBMCs (Milecell Biotechnologies)
T6 sequence (Q9UKS7 whole entry): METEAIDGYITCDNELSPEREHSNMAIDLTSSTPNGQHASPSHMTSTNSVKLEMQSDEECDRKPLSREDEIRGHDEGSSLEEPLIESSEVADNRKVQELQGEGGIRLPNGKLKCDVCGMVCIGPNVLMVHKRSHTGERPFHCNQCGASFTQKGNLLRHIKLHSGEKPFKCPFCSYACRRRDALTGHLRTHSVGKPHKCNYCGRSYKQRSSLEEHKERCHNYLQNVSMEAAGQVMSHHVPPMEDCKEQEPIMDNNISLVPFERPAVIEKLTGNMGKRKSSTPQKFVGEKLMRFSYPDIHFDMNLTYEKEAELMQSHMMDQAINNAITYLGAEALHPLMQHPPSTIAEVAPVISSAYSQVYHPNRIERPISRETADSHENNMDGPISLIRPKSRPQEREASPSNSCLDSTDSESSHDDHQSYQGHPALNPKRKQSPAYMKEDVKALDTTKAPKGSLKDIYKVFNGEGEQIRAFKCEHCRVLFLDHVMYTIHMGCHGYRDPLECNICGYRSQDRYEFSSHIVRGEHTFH
T6 sequence (Q96SW2 whole entry): as the sequence (Q96SW2 whole entry) above
T6 sequence (Q16531 whole entry partner): as the sequence (Q16531 whole entry partner) above

[7] = target: T7, IKZF3 (Homo sapiens, UniProt Q96SW2+Q9UKT9); experiment: Western-blot assay of substrate protein degradation in hPBMCs, IKZF3; type: cell-based; conditions: 24 hours of compound treatment
T7 construct: endogenous in cells; host or cells: hPBMCs (Milecell Biotechnologies)
T7 sequence (Q9UKT9 whole entry): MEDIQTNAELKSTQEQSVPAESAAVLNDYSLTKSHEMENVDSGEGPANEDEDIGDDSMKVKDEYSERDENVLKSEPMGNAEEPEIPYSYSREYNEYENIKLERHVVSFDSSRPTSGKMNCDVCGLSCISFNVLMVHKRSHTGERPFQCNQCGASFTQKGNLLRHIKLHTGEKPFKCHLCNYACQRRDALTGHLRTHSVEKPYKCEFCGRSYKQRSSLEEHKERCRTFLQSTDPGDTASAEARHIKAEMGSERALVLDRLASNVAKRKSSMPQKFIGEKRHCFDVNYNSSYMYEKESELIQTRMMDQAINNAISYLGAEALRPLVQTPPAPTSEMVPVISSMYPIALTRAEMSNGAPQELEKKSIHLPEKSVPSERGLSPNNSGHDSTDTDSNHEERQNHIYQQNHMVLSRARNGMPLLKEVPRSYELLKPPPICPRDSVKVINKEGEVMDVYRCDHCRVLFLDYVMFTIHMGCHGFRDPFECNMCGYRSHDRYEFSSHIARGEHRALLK
T7 sequence (Q96SW2 whole entry): as the sequence (Q96SW2 whole entry) above
T7 sequence (Q16531 whole entry partner): as the sequence (Q16531 whole entry partner) above

[8] = compounds tested at 50 nM and 500 nM (concentration of the table not stated)
[9] = 50 nM and 500 nM tested (concentration behind the class not stated)

T1 sequence (Q96SW2 whole entry): as the sequence (Q96SW2 whole entry) above

| Structure (SMILES) | IC50 [1] [nM] | GSPT1 substrate protein remaining % [2, 8] | CK1a substrate protein remaining % [3, 8] | IKZF 1 substrate protein remaining % [4, 8] | Weel substrate protein remaining % [5, 8] | IKZF2 substrate protein remaining % [6, 8] | IKZF3 substrate protein remaining % [7, 8] | GSPT1 substrate protein remaining % [2, 9] | CK1a substrate protein remaining % [3, 9] | IKZF 1 substrate protein remaining % [4, 9] | Weel substrate protein remaining % [5, 9] | IKZF2 substrate protein remaining % [6, 9] | IKZF3 substrate protein remaining % [7, 9] |
| --- | --- | --- | --- | --- | --- | --- | --- | --- | --- | --- | --- | --- | --- |
| O=C1CCC(N2Cc3cc(CN4CCN(c5nsc6cc(F)ccc56)CC4)ccc3C2=O)C(=O)N1 (stereo not drawn) [GT-05332, 3-(5-((4-(6-fluorobenzo[d]isothiazol-3-yl)piperazin-1-yl)methyl)-1-oxoisoindolin-2-yl)piperidine-2,6-dione] | < 500 | B (80%< substrate protein remaining %≤ 100%) | B (80%< substrate protein remaining %≤ 100%) | B (80%< substrate protein remaining %≤ 100%) | B (80%< substrate protein remaining %≤ 100%) | A (0% ≤ substrate protein remaining % ≤ 80%) | B (80%< substrate protein remaining %≤ 100%) | – | – | – | – | – | – |
| O=C1CCC(N2Cc3cc(CN4CCN(c5nc(N6CCCC6)nc6c5SCC6)CC4)ccc3C2=O)C(=O)N1 (stereo not drawn) [GT-05389, 3-(1-oxo-5-((4-(2-(pyrrolidin-1-yl)-6,7-dihydrothieno[3,2-d]pyrimidin-4-yl)piperazin-1-yl)methyl)isoindolin-2-yl)piperidine-2,6-dione] | < 500 | B (80%< substrate protein remaining %≤ 100%) | B (80%< substrate protein remaining %≤ 100%) | A (0% ≤ substrate protein remaining % ≤ 80%) | B (80%< substrate protein remaining %≤ 100%) | A (0% ≤ substrate protein remaining % ≤ 80%) | B (80%< substrate protein remaining %≤ 100%) | – | – | – | – | – | – |
| O=C1CCC(N2Cc3cc(CN4CCN(c5nc(N6CCC6)nc6c5SCC6)CC4)ccc3C2=O)C(=O)N1 (stereo not drawn) [GT-05900, 3-(5-((4-(2-(azetidin-1-yl)-6,7-dihydrothieno[3,2-d]pyrimidin-4-yl)piperazin-1-yl)methyl)-1-oxoisoindolin-2-yl)piperidine-2,6-dione] | < 500 | – | – | – | – | – | – | B (80%< substrate protein remaining %≤ 100%) | B (80%< substrate protein remaining %≤ 100%) | B (80%< substrate protein remaining %≤ 100%) | B (80%< substrate protein remaining %≤ 100%) | A (0% ≤ substrate protein remaining % ≤ 80%) | A (0% ≤ substrate protein remaining % ≤ 80%) |
| O=C1CCC(N2C(=O)c3ccc(CN4CCN(c5cccs5)CC4)cc3C2=O)C(=O)N1 (stereo not drawn) [GT-06212, 2-(2,6-dioxopiperidin-3-yl)-5-((4-(thiophen-2-yl)piperazin-1-yl)methyl)isoindoline-1,3-dione] | < 500 | – | – | – | – | – | – | A (0% ≤ substrate protein remaining % ≤ 80%) | B (80%< substrate protein remaining %≤ 100%) | B (80%< substrate protein remaining %≤ 100%) | B (80%< substrate protein remaining %≤ 100%) | A (0% ≤ substrate protein remaining % ≤ 80%) | B (80%< substrate protein remaining %≤ 100%) |
| Cc1ccc(N2CCN(Cc3ccc4c(c3)C(=O)N(C3CCC(=O)NC3=O)C4=O)CC2)s1 (stereo not drawn) [GT-06213, 2-(2,6-dioxopiperidin-3-yl)-5-((4-(5-methylthiophen-2-yl)piperazin-1-yl)methyl)isoindoline-1,3-dione] | 1500 to 1900 | – | – | – | – | – | – | A (0% ≤ substrate protein remaining % ≤ 80%) | B (80%< substrate protein remaining %≤ 100%) | B (80%< substrate protein remaining %≤ 100%) | B (80%< substrate protein remaining %≤ 100%) | A (0% ≤ substrate protein remaining % ≤ 80%) | B (80%< substrate protein remaining %≤ 100%) |
| O=C1CCC(N2C(=O)c3ccc(CN4CCN(c5ccsc5)CC4)cc3C2=O)C(=O)N1 (stereo not drawn) [GT-06215, 2-(2,6-dioxopiperidin-3-yl)-5-((4-(thiophen-3-yl)piperazin-1-yl)methyl)isoindoline-1,3-dione] | 500 to 1000 | – | – | – | – | – | – | B (80%< substrate protein remaining %≤ 100%) | A (0% ≤ substrate protein remaining % ≤ 80%) | B (80%< substrate protein remaining %≤ 100%) | A (0% ≤ substrate protein remaining % ≤ 80%) | B (80%< substrate protein remaining %≤ 100%) | A (0% ≤ substrate protein remaining % ≤ 80%) |
| Cc1ccc(C2=CCN(Cc3ccc4c(c3)C(=O)N(C3CCC(=O)NC3=O)C4=O)CC2)s1 (stereo not drawn) [GT-06220, 2-(2,6-dioxopiperidin-3-yl)-5-((4-(5-methylthiophen-2-yl)-3,6-dihydropyridin-1(2H)-yl)methyl)isoindoline-1,3-dione] | 1500 to 1900 | – | – | – | – | – | – | A (0% ≤ substrate protein remaining % ≤ 80%) | A (0% ≤ substrate protein remaining % ≤ 80%) | A (0% ≤ substrate protein remaining % ≤ 80%) | A (0% ≤ substrate protein remaining % ≤ 80%) | A (0% ≤ substrate protein remaining % ≤ 80%) | A (0% ≤ substrate protein remaining % ≤ 80%) |
| O=C1CCC(N2C(=O)c3ccc(CN4CC=C(c5ccco5)CC4)cc3C2=O)C(=O)N1 (stereo not drawn) [GT-06222, 2-(2,6-dioxopiperidin-3-yl)-5-((4-(furan-2-yl)-3,6-dihydropyridin-1(2H)-yl)methyl)isoindoline-1,3-dione] | 1000 to 1500 | – | – | – | – | – | – | A (0% ≤ substrate protein remaining % ≤ 80%) | A (0% ≤ substrate protein remaining % ≤ 80%) | A (0% ≤ substrate protein remaining % ≤ 80%) | A (0% ≤ substrate protein remaining % ≤ 80%) | A (0% ≤ substrate protein remaining % ≤ 80%) | A (0% ≤ substrate protein remaining % ≤ 80%) |
| O=C1CCC(N2C(=O)c3ccc(CN4CC=C(c5ccoc5)CC4)cc3C2=O)C(=O)N1 (stereo not drawn) [GT-06223, 2-(2,6-dioxopiperidin-3-yl)-5-((4-(furan-3-yl)-3,6-dihydropyridin-1(2H)-yl)methyl)isoindoline-1,3-dione] | 1000 to 1500 | – | – | – | – | – | – | A (0% ≤ substrate protein remaining % ≤ 80%) | A (0% ≤ substrate protein remaining % ≤ 80%) | A (0% ≤ substrate protein remaining % ≤ 80%) | A (0% ≤ substrate protein remaining % ≤ 80%) | B (80%< substrate protein remaining %≤ 100%) | A (0% ≤ substrate protein remaining % ≤ 80%) |
| O=C1CCC(N2C(=O)c3ccc(CN4CCC(=C5CCOc6cc(F)ccc65)CC4)cc3C2=O)C(=O)N1 (stereo not drawn) [GT-06238, 2-(2,6-dioxopiperidin-3-yl)-5-((4-(7-fluorochroman-4-ylidene)piperidin-1-yl)methyl)isoindoline-1,3-dione] | 1000 to 1500 | A (0% ≤ substrate protein remaining % ≤ 80%) | B (80%< substrate protein remaining %≤ 100%) | B (80%< substrate protein remaining %≤ 100%) | B (80%< substrate protein remaining %≤ 100%) | A (0% ≤ substrate protein remaining % ≤ 80%) | A (0% ≤ substrate protein remaining % ≤ 80%) | – | – | – | – | – | – |
| Cc1csc2ncnc(N3CCN(Cc4ccc5c(c4)C(=O)N(C4CCC(=O)NC4=O)C5=O)CC3)c12 (stereo not drawn) [GT-06304, 2-(2,6-dioxopiperidin-3-yl)-5-((4-(5-methylthieno[2,3-d]pyrimidin-4-yl)piperazin-1-yl)methyl)isoindoline-1,3-dione] | 500 to 1000 | – | – | – | – | – | – | B (80%< substrate protein remaining %≤ 100%) | B (80%< substrate protein remaining %≤ 100%) | A (0% ≤ substrate protein remaining % ≤ 80%) | B (80%< substrate protein remaining %≤ 100%) | A (0% ≤ substrate protein remaining % ≤ 80%) | B (80%< substrate protein remaining %≤ 100%) |
| CC(C)c1cc2c(N3CCN(Cc4ccc5c(c4)C(=O)N(C4CCC(=O)NC4=O)C5=O)CC3)ncnc2s1 (stereo not drawn) [GT-06306, 2-(2,6-dioxopiperidin-3-yl)-5-((4-(6-isopropylthieno[2,3-d]pyrimidin-4-yl)piperazin-1-yl)methyl)isoindoline-1,3-dione] | 1500 to 1900 | – | – | – | – | – | – | A (0% ≤ substrate protein remaining % ≤ 80%) | A (0% ≤ substrate protein remaining % ≤ 80%) | A (0% ≤ substrate protein remaining % ≤ 80%) | B (80%< substrate protein remaining %≤ 100%) | A (0% ≤ substrate protein remaining % ≤ 80%) | A (0% ≤ substrate protein remaining % ≤ 80%) |
